In EP0542497A1, “Heterocyclic compounds” (THE WELLCOME FOUNDATION LIMITED, priority 1991, dated 1993):

Tested on: Mycobacterium tuberculosis
Test: In vitro activity vs Mycobacterium tuberculosis, proportion method
Format: cell-based
Conditions: ten(10) clinical isolates of Myco. tuberculosis (including several multiply-resistant strains), read-out: average MIC

`CCC(CC)n1c(C)cc2c3c(N)nc(N)nc3ccc21` [Compound 2, 1,3-Diamino-7-(1-ethylpropyl)-8-methyl-7H-pyrrolo(3,2-f)quinazoline] gave a M I C of 3.2 µg/mL.
